Tested on: A549 (EGFR^WT) cells
Assay: MTT cell viability inhibition assay, A549 cells
Assay type: cell-based
Conditions: Homo sapiens, A549, 72 h, read-out: IC50 (μM) A549 (EGFR^WT)

IC50: 0.6864 ± 0.0045 µM
Compound: C=CC(=O)Nc1cc(Nc2nccc(-c3cn(C)c4ccccc34)n2)c(OC)cc1N(C)CCN(C)C [Osimertinib, osimertinib]

Source: publication PMC10923520 (Science Advances, 2024)
